# pIC50: −log10 of the molar value.
# Legend:
# Trichomonas vaginalis [1] = experiment: Antimicrobial activity against Trichomonas vaginalis JH31A#4 trophozoites assessed as reduction in parasitic growth incubated for 24 hrs by resazurin dye based fluorescence assay; format: functional, organism-based; conditions: JH31A#4, 24 h
# Trichomonas vaginalis [2] = experiment: Antimicrobial activity against Trichomonas vaginalis IR78 trophozoites assessed as reduction in parasitic growth incubated for 24 hrs by resazurin dye based fluorescence assay; format: functional, organism-based; conditions: IR78, 24 h
# [3] = Cytotoxicity against African green monkey Vero cells; format: cell-based; conditions: chlorocebus sabaeus
# [4] = Selectivity index, ratio of CC50 for African green monkey Vero cells to IC50 for Trichomonas vaginalis JH31A#4 trophozoites; format: toxicity; conditions: read-out: Ratio CC50/IC50
# [5] = Selectivity index, ratio of CC50 for African green monkey Vero cells to IC50 for Trichomonas vaginalis IR78 trophozoites; format: toxicity; conditions: read-out: Ratio CC50/IC50
SMILES,pIC50 (Trichomonas vaginalis [1]),pIC50 (Trichomonas vaginalis [2]),CC50 [3] [µM],selectivity ratio [4],selectivity ratio [5]
CN(C)CCOc1nn(Cc2ccccc2)c2ccc([N+](=O)[O-])cc12,3.68,,,,
O=[N+]([O-])c1ccc2c(c1)c(OCCCCCBr)nn2Cc1ccccc1,< 3.52,,,,
CN(C)CCCCCOc1nn(Cc2ccccc2)c2ccc([N+](=O)[O-])cc12,5.19,4.25,52.3,8,0.94
CNCCOc1nn(Cc2ccccc2)c2ccc([N+](=O)[O-])cc12,4.79,4.13,171,10.5,2.3
O=C1c2ccccc2C(=O)N1CCCOc1nn(Cc2ccccc2)c2ccc([N+](=O)[O-])cc12,4.15,,,,
O=C1c2ccccc2C(=O)N1CCOc1nn(Cc2ccccc2)c2ccc([N+](=O)[O-])cc12,3.55,,,,
NCCCCCOc1nn(Cc2ccccc2)c2ccc([N+](=O)[O-])cc12,5.38,4.23,57.7,13.7,1
O=[N+]([O-])c1ccc2c(c1)c(OCCCCCN1CCCCC1)nn2Cc1ccccc1,4.16,,,,
O=[N+]([O-])c1ccc2c(c1)c(OCCN1CCCCC1)nn2Cc1ccccc1,3.58,,,,
CNCCCCCOc1nn(Cc2ccccc2)c2ccc([N+](=O)[O-])cc12,5.60,6.30,24,9.6,48
O=[N+]([O-])c1ccc2c(c1)c(OCCCN1CCCCC1)nn2Cc1ccccc1,3.98,,,,
NCCCOc1nn(Cc2ccccc2)c2ccc([N+](=O)[O-])cc12,4.72,5.89,46.3,2.4,35.6
O=[N+]([O-])c1ccc2c(c1)c(OCCBr)nn2Cc1ccccc1,< 3.52,,,,
CN(C)CCCOc1nn(Cc2ccccc2)c2ccc([N+](=O)[O-])cc12,4.20,,,,
NCCOc1nn(Cc2ccccc2)c2ccc([N+](=O)[O-])cc12,4.98,4.84,> 300,> 28.6,> 21
Cc1ncc([N+](=O)[O-])n1CCO [METRONIDAZOLE],5.77,5.52,> 300,> 176,> 100

# Reference: ChEMBL document CHEMBL4732195, “Promising hit compounds against resistant trichomoniasis: Synthesis and antiparasitic activity of 3-(ω-aminoalkoxy)-1-benzyl-5-nitroindazoles” (Bioorg Med Chem Lett, 2021)
